Values joined by “and” are separate entries in the source; they are usually repeats but may differ in a detail not shown here. Identical values can stand only once. Like-named read-outs stand apart in the source and are kept apart here.

In experiment [1] the test system is T1, TLR7/8.
T1 construct: other: human PBMC; ligand SL4-Ig; individual donors 1-6; average of donors; ligand RNA40-DOTAP; individual donors; ligand R848; ligand
The experiment in a line: Subsequent human PBMC assay, various TLR7/8 ligands, IL-6 and IFN-α blockade. The class given is cell-based. The procedure: (§1) Human PBMC Cell-Based Assay. Human peripheral blood mononuclear cells (PBMC) were isolated from freshly-drawn heparinized (10 USP units/ml, Hospira, Lakeforest, Ill.) healthy donor whole blood by density gradient (Histopaque® 1077, Sigma, Inc., St. Louis, Mo.). Briefly, 25 ml blood was diluted with 15 ml PBS (without Ca^2+, Mg^2+) in a 50 ml conical tube, and 12 ml Histopaque was underlaid using a spinal needle. Tubes were centrifuged for 45 minutes at 1200 rpm (350×g), and PBMC were collected from the buffy coat. Cells were then washed twice in PBS, and red blood cells were lysed by suspension in 5 ml ammonium chloride solution (1× Red Blood Cell Lysis Buffer, eBioscience) for 5 minutes at room temperature. After a final wash in PBS, PBMC were resuspended at a final concentration of 2×10^6/ml in RPMI-1640 media with L-glutamine (Invitrogen) and supplemented with 25 mM HEPES (Mediatech, Inc, Manassas Va.), 10% fetal bovine serum (HyClone, Logan, Utah), and Penicillin-Streptomycin-Glutamine (Mediatech) and plated at 100 ul/well (2×10^5 cells/well) in tissue culture treated 96-well plates (Falcon).
(§2) Antagonist compounds solubilized and serial diluted in 100% DMSO were added in triplicate to cells to yield a final concentration of 0.1% DMSO (v/v). Hydroxychloroquine (Acros Organics) solubilized and serial diluted in PBS was added in triplicate to cells. PBMC were incubated with antagonist compounds or HCQ for 30 minutes at 37° C., 5% CO2 before adding various TLR agonist reagents in 100 ul complete media per well as follows (final concentrations indicated): R848 (Resiquimod; GLSynthesis, Worcester, Mass.) at 1 uM for TLR7 and TLR8, LPS (Sigma) at 10 ng/ml for TLR4, and CpG-2216 (InvivoGen) at 5 ug/ml for TLR9. To prepare a TLR7/8 agonist that mimics RNA-containing auto-antibody immune complexes in lupus patients, a 26-mer RNA with a sequence derived from human U1 snRNA stem loop IV [(sequence: […]-[…] (SEQ ID NO: 2) with phosphorothioate backbone] was synthesized (Dharmacon, Inc., Lafayette, Colo.), which has been shown previously to be a potent TLR7 and TLR8 agonist. This RNA molecule was diluted to 2.5 μM in serum-free RPMI, and mouse anti-human single stranded DNA monoclonal antibody (MAB3034, Millipore, Inc., Billerica, Mass.), which also cross-reacts with RNA, was added at a 1:25 dilution or at 1 ug/ml. The resulting “RNA-Ig” stimulus was incubated at room temperature for 15-30 minutes before adding to cells. PBMC were incubated with the various TLR agonists for 20 hours at 37° C., 5% CO2. Cell culture supernatants were collected, and levels of various human cytokines were assessed as indicated by standard ELISA procedure according to the manufacturer's recommended protocol (BD Biosciences, Inc., San Diego, Calif.). In a subsequent assay (Table 6) the ability of ER-899742 to block stimulation of normal PBMC by various TLR7/8 ligands, but not DNA-mediated activation of TLR9, was examined. In this assay cells were plated at 1×10^5 cells/well in 100 ul in 96-well plates.

Experiment [2] concerns T2, TLR7/8.
T2 construct: other: human PBMC; ligand SL4-Ig; individual donors 1-6; average of donors; ligand RNA40-DOTAP; individual donors; ligand R848; ligand R848
Described as above. Format: cell-based. The procedure: as §1, §2

Where [3] appears, read: read-out: IC50 IFN-α Ave., ligand R848, average of donors.
Where [4] appears, read: read-out: IC50 IFN-α Ave., ligand RNA40-DOTAP, average of donors.
[5] abbreviates: read-out: IC50 IFN-α Ave., ligand SL4-Ig, average of donors.
Where [6] appears, read: read-out: IC50 IL-6 Ave., ligand R848, average of donors.
[7] abbreviates: read-out: IC50 IL-6 Ave., ligand RNA40-DOTAP, average of donors.
Where [8] appears, read: read-out: IC50 IL-6 Ave., ligand SL4-Ig, average of donors.

The IC50 is the concentration that gives 50% inhibition. For the molecule `CCN(CCO)CCCC(C)Nc1ccnc2cc(Cl)ccc12` (stereo not drawn) [HCQ, hydroxychloroquine, reference compound], the IC50 was 1950 nM in the experiment with TLR7/8 [1] (setting [3]); 598 nM in the experiment on TLR7/8 [1] (setting [4]); 392 nM in the experiment on TLR7/8 [1] (setting [5]); 1250 nM and 2570 nM and 2030 nM in the experiment with TLR7/8 [1] (read-out: IC50 IFN-α, ligand R848, individual donors); 490 nM and 410 nM and 990 nM and 502 nM with TLR7/8 [1] (read-out: IC50 IFN-α, ligand RNA40-DOTAP, individual donors); 459 nM and 324 nM in the experiment on TLR7/8 [1] (read-out: IC50 IFN-α, ligand SL4-Ig, individual donors 1-6). For the same molecule, the half-inhibitory concentration (IC50) was over 10000 nM with TLR7/8 [2] (read-out: IC50 IL-6, ligand R848, individual donors); 10000 nM and 10800 nM and > 10000 nM and 15500 nM and 18000 nM and 6100 nM in the experiment on TLR7/8 [2] (read-out: IC50 IL-6, ligand RNA40-DOTAP, individual donors); 5200 nM and 3700 nM and 3200 nM and 3600 nM and 4300 nM and 4600 nM in the experiment with TLR7/8 [2] (read-out: IC50 IL-6, ligand SL4-Ig, individual donors 1-6); over 10000 nM with TLR7/8 [2] (setting [6]); 12100 nM in the experiment on TLR7/8 [2] (setting [7]); 4100 nM in the experiment with TLR7/8 [2] (setting [8]).

For the molecule `C[C@@H]1CN(c2ccc(C#N)c3ncccc23)C[C@H](C(=O)N[C@H]2CNC[C@H]2F)O1.Cl` [ER-899742, (2R,6R)-4-(8-cyanoquinolin-5-yl)-N-[(3S,4R)-4-fluoropyrrolidin-3-yl]-6-methylmorpholine-2-carboxamide hydrochloride], the IC50 in the experiment with TLR7/8 [1] (setting [3]) is 11 nM; with TLR7/8 [1] (setting [4]) it was 13.9 nM; in the experiment with TLR7/8 [1] (setting [5]), 1.4 nM; in the experiment on TLR7/8 [1] (read-out: IC50 IFN-α, ligand R848, individual donors, hydrochloride), 12 nM and 11 nM and 10 nM; in the experiment on TLR7/8 [1] (read-out: IC50 IFN-α, ligand RNA40-DOTAP, individual donors, hydrochloride), 9.6 nM and 18 nM and 11 nM and 17 nM; with TLR7/8 [1] (read-out: IC50 IFN-α, ligand SL4-Ig, individual donors 1-6, hydrochloride), 2.2 nM and 0.5 nM. Also, the concentration for half-maximal inhibition (IC50) with TLR7/8 [2] (read-out: IC50 IL-6, ligand R848, individual donors, hydrochloride) was 6.5 nM and 7 nM and 4.9 nM and 5.5 nM and 8.1 nM and 3.4 nM; in the experiment with TLR7/8 [2] (read-out: IC50 IL-6, ligand RNA40-DOTAP, individual donors, hydrochloride), 23 nM and 54 nM and 33 nM and 29 nM and 14 nM and 35 nM; in the experiment on TLR7/8 [2] (read-out: IC50 IL-6, ligand SL4-Ig, individual donors 1-6, hydrochloride), 3.2 nM and 4.3 nM and 2.5 nM and 3.3 nM and 7.7 nM; in the experiment with TLR7/8 [2] (setting [6]) it was 5.9 nM; in the experiment with TLR7/8 [2] (setting [7]), 31.3 nM; with TLR7/8 [2] (setting [8]), 4.2 nM.

These data come from patent USRE47193E1, “Selectively substituted quinoline compounds” (EISAI R&D MANAGEMENT CO., LTD., priority 2013, dated 2019).
